In patent publication US20230143553A1, “PRECISION DELIVERY OF MULTI-SCALE PAYLOADS TO TISSUE-SPECIFIC TARGETS IN PLANTS” (MASSACHUSETTS INSTITUTE OF TECHNOLOGY, priority 2020, published 2023):

Experiments:
xylem = experiment: Phytoinjector delivery to xylem of tomato, dye transport
Text: Based on these parameters, phytoinjectors were designed with a tip diameter smaller than 35 μm and 10 μm for xylem and phloem, respectively (FIG. 1B, FIG. 13C and FIG. 13D). […] To investigate payload delivery in planta, each payload was loaded to phytoinjectors at the point of material assembly before drying. […] The injected petioles were sliced along the transverse section downstream and upstream at various distances from the injection site to investigate the presence of the delivered dyes. […] In xylem, transport analysis was conducted by tangential sectioning of the stem (FIG. 3E). […] To quantify payloads transport, the fluorescence intensity was integrated (see FIG. 3E). The normalized intensity distribution evolves spatially and temporally (FIG. 3F).

petiole's xylem = experiment: Luciferin-luciferase bioluminescent reaction after phytoinjector delivery into petiole xylem; assay type: in vivo, tomato (Solanum lycopersicum); conditions: luciferin in petiole's xylem; other reagents by foliar infiltration
Text: The phytoinjectors were applied in petiole vasculature near the leaflet to facilitate observation and imaging. At first, luciferin was deployed in the petiole's xylem while the other reagents were delivered by foliar infiltration to the leaf.

Compound	transport distance upstream of injection site (xylem) [cm]	transport distance downstream of injection site (xylem; from root to leaves)	luminescence of leaf tissue after delivery (petiole's xylem)
5(6)-carboxyfluorescein diacetate	1	more than 7 cm	
O=C(O)[C@H]1CSC(c2nc3ccc(O)cc3s2)=N1 [luciferin]			showed luminescence
